As usually defined, the IC50 is the point on the concentration scale where inhibition reaches its midpoint.

Sequence of human CXCR3A (P49682 whole entry): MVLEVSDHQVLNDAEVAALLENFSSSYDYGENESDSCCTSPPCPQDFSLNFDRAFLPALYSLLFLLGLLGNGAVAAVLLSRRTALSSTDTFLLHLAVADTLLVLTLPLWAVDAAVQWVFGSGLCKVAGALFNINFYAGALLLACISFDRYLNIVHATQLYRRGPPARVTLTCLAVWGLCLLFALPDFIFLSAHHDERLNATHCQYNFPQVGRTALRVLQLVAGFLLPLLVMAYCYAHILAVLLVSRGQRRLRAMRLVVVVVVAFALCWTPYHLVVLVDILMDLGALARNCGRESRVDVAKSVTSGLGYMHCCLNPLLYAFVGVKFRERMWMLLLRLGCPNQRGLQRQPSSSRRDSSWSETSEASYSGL

The assay addresses human CXCR3A (Homo sapiens (Human), UniProt P49682). As to the kind of experiment: FLIPR assay (inhibition of CXCL10-induced calcium signal). Type of assay: cell-based. Conditions: engineered CHO-K1 cells expressing human CXCR3A coupled to Galpha(16); Fluo-4-AM; CXCL10 agonist 20 nM; mean values where determined several times. The gist of the method: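 CHO-K1 cells expressing human CXCR3A coupled to Gα16 were loaded with Fluo-4-AM for 1 h in HBSS/20 mM Hepes pH 7.4 with probenecid. Compound was added, then CXCL10 (20 nM as dispensed). Baseline-subtracted peak fluorescence gave inhibition curves and IC50, averaged over repeats.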
With `C[C@@H]1CN(c2cccc3c2CN(C(=O)CCc2ccc(Cl)cc2)CC3)CCN1C(=O)Cn1cnc2cccnc21` [Example 82, 3-(4-Chloro-phenyl)-1-{8-[(R)-4-(2-imidazo[4,5-b]pyridin-3-yl-acetyl)-3-methyl-piperazin-1-yl]-3,4-dihydro-1H-isoquinolin-2-yl}-propan-1-one], the IC50 amounted to 88.1 nM.
With `Cc1cc(C)n(CC(=O)N2CCN(c3ccc(C(F)(F)F)c4c3CN(c3nc(-c5ccccn5)cs3)CC4)C[C@H]2C)n1` [Example 5, 2-(3,5-Dimethyl-pyrazol-1-yl)-1-{(R)-2-methyl-4-[2-(4-pyridin-2-yl-thiazol-2-yl)-5-trifluoromethyl-1,2,3,4-tetrahydro-isoquinolin-8-yl]-piperazin-1-yl}-ethanone], the half-inhibitory concentration (IC50) stood at 11 nM.
In the case of `C[C@@H]1CN(c2cccc3c2CN(C(=O)Cn2ccc4ccccc42)CC3)CCN1C(=O)Cn1cnc2cccnc21` [Example 66, 2-Imidazo[4,5-b]pyridin-3-yl-1-{(R)-4-[2-(2-indol-1-yl-acetyl)-1,2,3,4-tetrahydro-isoquinolin-8-yl]-2-methyl-piperazin-1-yl}-ethanone] it was 304 nM.
In the case of `Cc1cc(C)n(CC(=O)N2CCN(c3ccc(C(F)(F)F)c4c3CN(c3cnc(N(C)C)nc3)CC4)C[C@H]2C)n1` [Example 13, 1-{(R)-4-[2-(2-Dimethylamino-pyrimidin-5-yl)-5-trifluoromethyl-1,2,3,4-tetrahydro-isoquinolin-8-yl]-2-methyl-piperazin-1-yl}-2-(3,5-dimethyl-pyrazol-1-yl)-ethanone], the half-inhibitory concentration (IC50) worked out at 8.48 nM.
`CCOc1ncc(N2CCc3c(C(F)(F)F)ccc(N4CCN(C(=O)Cn5nc(C)cc5C)[C@@H](C)C4)c3C2)cn1` [Example 35, 2-(3,5-Dimethyl-pyrazol-1-yl)-1-{(S)-4-[2-(2-ethoxy-pyrimidin-5-yl)-5-trifluoromethyl-1,2,3,4-tetrahydro-isoquinolin-8-yl]-2-methyl-piperazin-1-yl}-ethanone]: the half-inhibitory concentration (IC50) stood at 30.8 nM.
`O=C(Cn1ccc2cccnc21)N1CCN(c2cccc3c2CN(C(=O)OCc2ccccc2)CC3)CC1` [Example 138, 8-[4-(2-Pyrrolo[2,3-b]pyridin-1-yl-acetyl)-piperazin-1-yl]-3,4-dihydro-1H-isoquinoline-2-carboxylic acid benzyl ester]: the 50% inhibitory concentration (IC50) was found to be 12.4 nM.
The result for `CCOc1ncc(N2CCc3cccc(N4CCN(C(=O)Cn5cnc6cccnc65)[C@H](C)C4)c3C2)cn1` [Example 123, 1-{(R)-4-[2-(2-Ethoxy-pyrimidin-5-yl)-1,2,3,4-tetrahydro-isoquinolin-8-yl]-2-methyl-piperazin-1-yl}-2-imidazo[4,5-b]pyridin-3-yl-ethanone] reads 4.71 nM; that for `Cc1cc(C)n(CC(=O)N2CCN(c3ccc(C(F)(F)F)c4c3CN(c3nc5ccccc5s3)CC4)C[C@H]2C)n1` [Example 57, 1-[(R)-4-(2-Benzothiazol-2-yl-5-trifluoromethyl-1,2,3,4-tetrahydro-isoquinolin-8-yl)-2-methyl-piperazin-1-yl]-2-(3,5-dimethyl-pyrazol-1-yl)-ethanone], 26.5 nM; that for `C[C@@H]1CN(c2cccc3c2CN(c2ncc(-c4ccccc4)s2)CC3)CCN1C(=O)Cn1cnc2cccnc21` [Example 115, 2-Imidazo[4,5-b]pyridin-3-yl-1-{(R)-2-methyl-4-[2-(5-phenyl-thiazol-2-yl)-1,2,3,4-tetrahydro-isoquinolin-8-yl]-piperazin-1-yl}-ethanone], 13.3 nM.
For `Cc1nc(C)n(CC(=O)N2CCN(c3ccc(C(F)(F)F)c4c3CN(c3nc(C(F)(F)F)cs3)CC4)C[C@H]2C)n1` [Example 42, 2-(3,5-Dimethyl-[1,2,4]triazol-1-yl)-1-{(R)-2-methyl-4-[5-trifluoromethyl-2-(4-trifluoromethyl-thiazol-2-yl)-1,2,3,4-tetrahydro-isoquinolin-8-yl]-piperazin-1-yl}-ethanone], the concentration for half-maximal inhibition (IC50) is 8.29 nM.
For the molecule `C[C@@H]1CN(c2cccc3c2CN(C(=O)COc2ccccc2)CC3)CCN1C(=O)Cn1cnc2cccnc21` [Example 81, 2-Imidazo[4,5-b]pyridin-3-yl-1-{(R)-2-methyl-4-[2-(2-phenoxy-acetyl)-1,2,3,4-tetrahydro-isoquinolin-8-yl]-piperazin-1-yl}-ethanone], the 50% inhibitory concentration (IC50) is 65.1 nM.
On to `C[C@@H]1CN(c2cccc3c2CN(c2nc(-c4ccccc4)cs2)CC3)CCN1C(=O)Cn1cnc2cccnc21` [Example 124, 2-Imidazo[4,5-b]pyridin-3-yl-1-{(R)-2-methyl-4-[2-(4-phenyl-thiazol-2-yl)-1,2,3,4-tetrahydro-isoquinolin-8-yl]-piperazin-1-yl}-ethanone], for which the IC50 was 34.4 nM.
The result for `C[C@@H]1CN(c2cccc3c2CN(c2ccc(Cl)cc2)CC3)CCN1C(=O)Cn1cnc2cccnc21` [Example 93, 1-{(R)-4-[2-(4-Chloro-phenyl)-1,2,3,4-tetrahydro-isoquinolin-8-yl]-2-methyl-piperazin-1-yl}-2-imidazo[4,5-b]pyridin-3-yl-ethanone] reads 7.55 nM.
In the case of `COc1nc(OC)nc(N2CCc3cccc(N4CCN(C(=O)Cn5cnc6cccnc65)[C@H](C)C4)c3C2)n1` [Example 121, 1-{(R)-4-[2-(4,6-Dimethoxy-[1,3,5]triazin-2-yl)-1,2,3,4-tetrahydro-isoquinolin-8-yl]-2-methyl-piperazin-1-yl}-2-imidazo[4,5-b]pyridin-3-yl-ethanone] it was 3.39 nM.
The result for `Cc1nc(C)n(CC(=O)N2CCN(c3ccc(C(F)(F)F)c4c3CN(c3cnc(N(C)C)nc3)CC4)C[C@H]2C)n1` [Example 50, 1-{(R)-4-[2-(2-Dimethylamino-pyrimidin-5-yl)-5-trifluoromethyl-1,2,3,4-tetrahydro-isoquinolin-8-yl]-2-methyl-piperazin-1-yl}-2-(3,5-dimethyl-[1,2,4]triazol-1-yl)-ethanone] reads 2.26 nM.
With `C[C@@H]1CN(c2cccc3c2CN(c2ccc(C(F)(F)F)cc2)CC3)CCN1C(=O)Cn1cnc2cccnc21` [Example 96, 2-Imidazo[4,5-b]pyridin-3-yl-1-{(R)-2-methyl-4-[2-(4-trifluoromethyl-phenyl)-1,2,3,4-tetrahydro-isoquinolin-8-yl]-piperazin-1-yl}-ethanone], the half-maximal inhibitory concentration (IC50) amounted to 25.5 nM.
In the case of `C[C@@H]1CN(c2cccc3c2CN(C(=O)CCc2ccc(Cl)c(Cl)c2)CC3)CCN1C(=O)Cn1cnc2cccnc21` [Example 84, 3-(3,4-Dichloro-phenyl)-1-{8-[(R)-4-(2-imidazo[4,5-b]pyridin-3-yl-acetyl)-3-methyl-piperazin-1-yl]-3,4-dihydro-1H-isoquinolin-2-yl}-propan-1-one] it was 99.7 nM.
Regarding `Cc1ccc(N2CCc3cccc(N4CCN(C(=O)Cn5cnc6cccnc65)[C@H](C)C4)c3C2)nc1` [Example 90, 2-Imidazo[4,5-b]pyridin-3-yl-1-{(R)-2-methyl-4-[2-(5-methyl-pyridin-2-yl)-1,2,3,4-tetrahydro-isoquinolin-8-yl]-piperazin-1-yl}-ethanone], the IC50 came out at 11.2 nM.
In the case of `C[C@@H]1CN(c2cccc3c2CN(C(=O)c2ccc(Cl)c(Cl)c2)CC3)CCN1C(=O)Cn1cnc2cccnc21` [Example 75, 1-{(R)-4-[2-(3,4-Dichloro-benzoyl)-1,2,3,4-tetrahydro-isoquinolin-8-yl]-2-methyl-piperazin-1-yl}-2-imidazo[4,5-b]pyridin-3-yl-ethanone], the IC50 was found to be 17 nM.
With `C[C@@H]1CN(c2cccc3c2CN(c2cnc(OCC(F)(F)F)nc2)CC3)CCN1C(=O)Cn1cnc2cccnc21` [Example 112, 2-Imidazo[4,5-b]pyridin-3-yl-1-((R)-2-methyl-4-{2-[2-(2,2,2-trifluoro-ethoxy)-pyrimidin-5-yl]-1,2,3,4-tetrahydro-isoquinolin-8-yl}-piperazin-1-yl)-ethanone], the IC50 came to 2.98 nM.
For `C[C@@H]1CN(c2cccc3c2CN(C(=O)OCc2ccccc2)CC3)CCN1C(=O)Cn1cccn1` [Example 135, 8-[(R)-3-Methyl-4-(2-pyrazol-1-yl-acetyl)-piperazin-1-yl]-3,4-dihydro-1H-isoquinoline-2-carboxylic acid benzyl ester], the IC50 is 116 nM.
The result for `Cc1nc(N2CCc3cccc(N4CCN(C(=O)Cn5cnc6cccnc65)[C@H](C)C4)c3C2)sc1C` [Example 116, 1-{(R)-4-[2-(4,5-Dimethyl-thiazol-2-yl)-1,2,3,4-tetrahydro-isoquinolin-8-yl]-2-methyl-piperazin-1-yl}-2-imidazo[4,5-b]pyridin-3-yl-ethanone] reads 15.1 nM; that for `CC(C)Oc1ncc(N2CCc3cccc(N4CCN(C(=O)Cn5cnc6cccnc65)[C@H](C)C4)c3C2)cn1` [Example 111, 2-Imidazo[4,5-b]pyridin-3-yl-1-{(R)-4-[2-(2-isopropoxy-pyrimidin-5-yl)-1,2,3,4-tetrahydro-isoquinolin-8-yl]-2-methyl-piperazin-1-yl}-ethanone], 4.83 nM.
The result for `C[C@@H]1CN(c2cccc3c2CN(Cc2ccc(Cl)cc2)CC3)CCN1C(=O)Cn1cnc2cccnc21` [Example 143, 1-{(R)-4-[2-(4-Chloro-benzyl)-1,2,3,4-tetrahydro-isoquinolin-8-yl]-2-methyl-piperazin-1-yl}-2-imidazo[4,5-b]pyridin-3-yl-ethanone] reads 465 nM.
With `C[C@@H]1CN(c2cccc3c2CN(c2ccc(F)cc2)CC3)CCN1C(=O)Cn1cnc2cccnc21` [Example 99, 1-{(R)-4-[2-(4-Fluoro-phenyl)-1,2,3,4-tetrahydro-isoquinolin-8-yl]-2-methyl-piperazin-1-yl}-2-imidazo[4,5-b]pyridin-3-yl-ethanone], the IC50 is 8.3 nM.
In the case of `C[C@@H]1CN(c2cccc3c2CN(C(=O)Cc2cccnc2)CC3)CCN1C(=O)Cn1cnc2cccnc21` [Example 63, 2-Imidazo[4,5-b]pyridin-3-yl-1-{(R)-2-methyl-4-[2-(2-pyridin-3-yl-acetyl)-1,2,3,4-tetrahydro-isoquinolin-8-yl]-piperazin-1-yl}-ethanone] it was 668 nM.

(Values after patent US9951063B2, “8-(piperazin-1-yl)-1,2,3,4-tetrahydro-isoquinoline derivatives” (IDORSIA PHARMACEUTICALS LTD, priority 2014, dated 2018).)
